Test results taken from patent publication US11135252B2, “Probiotic therapies for developmental disorders and other neurological disorders” (Baylor College of Medicine, priority 2016, dated 2021).
“Also recorded” adds a separate entry of the source.

Tested on: MHFD offspring
Assay: Three-chamber social test in MHFD offspring
Assay type: in vivo, mice
Conditions: in drinking water, 4 weeks
Method: Crawley's three-chamber test for sociability and preference for social novelty was performed as described (Silverman et al., 2010). In brief, the mouse first experienced a 10-minute period of habituation during which it was allowed to freely explore a 60×40×23 cm Plexiglass arena divided into three equally sized, interconnected chambers (Left, Center, Right). Sociability was measured during a second ten-minute period in which the subject could interact either with an empty wire cup (Empty) or a wire cup containing an age and sex-matched stranger conspecific (Mouse 1). Time spent interacting (sniffing, crawling upon) with either the empty cup or the stranger mouse contained in the other cup as well as time spent in each chamber was recorded using the AnyMaze software, by independent observers. Empty cup placement in the Left or Right chamber during the Sociability period was counterbalanced between trials. Finally, preference for social novelty was assayed by introducing a second stranger mouse (Mouse 2) into the previously the empty wire cup. Time spent in each chamber as well as time spent interacting with either Mouse 1 or Mouse 2 was recorded using the automated AnyMaze software by independent observers. Lactobacillus reuteri MM4-1A (ATCC-PTA-6475) and Lactobacillus johnsonii (ATCC 33200) were cultured anaerobically in MRS broth in a 90% N2, 5% CO2, 5% H2 environment. L. reuteri was heat-killed by keeping the bacteria at 80° C. for 20 minutes (Wang et al., 2010). Bacterial viability was assessed by plating and the efficacy of the heat-kill procedure was confirmed by the absence of colony growth following plating. Cultures were centrifuged, washed, and resuspended in anaerobic solution (PBS) and frozen at −80° C. until use. PBS, live or heat-killed L. reuteri were added to the drinking water, which was changed daily to minimize dosage variability. Whereas the experimental group received live bacteria, one control group received identically prepared cultures of heat-killed bacteria. A second group of control mice received water treated with PBS alone. Live and heat-killed L. reuteri were supplied at a dosage of 1×10^8 organisms/mouse/day continuously in drinking water. Mice consumed the treated water ad libitum over the treatment period. The treated drinking water for each group was replaced daily two hours prior to the onset of the dark cycle to minimize variation in microbial exposure. Behavioral assays were initiated after 4-weeks of L. reuteri or control treatment. The protocol of the L. johnsonii preparation and administration matched the L. reuteri protocol. Fecal samples for sequencing and tissue used in the immunofluorescence studies were collected at the end of the treatment. Oxytocin was obtained from Tocris Bioscience (product 1910) and solubilized in 10% dimethyl sulfoxide (DMSO) in PBS. 10% DMSO in PBS was used as the vehicle control. Mice received oxytocin intranasally (at approximately 200 μg/kg) thirty minutes prior to behavior. 1.25 μl of oxytocin or vehicle solution was injected into each nostril from P10 pipette. Oxytocin dose was selected according to dosages reported to rescue social behavior in genetic models phenotypically expressing ASD-like behaviors (Penagarikano et al., 2015).

Lactobacillus johnsonii (ATCC 33200) [L. johnsonii]
social behavior / social deficits (sociability and preference for social novelty): failed to rescue social behaviors; also recorded: Failed to Reverse Social Deficits
